From patent publication US20110207814A1, “Combination Therapy for Breast Cancer Treatment” (priority 2009, published 2011)
Entries after “also recorded” stand apart in the source; their conditions may differ.

Experiments:
[1] = tested on: primary and metastatic breast cancer; details: mice; cited from earlier work
T47D [2] = tested on: T47D
Procedure: (§1) Cultures of breast cancer cells and MSCs, alone or in co-culture, from each experimental setup were assayed for cellular proliferation and viability using the CyQuant Cell Proliferation Assay Kit (Molecular Probes; Eugene, Oreg.) and CellTiter-Blue Cell Viability Assay (Promega), respectively, according to manufacturer's specific instructions.
(§2) For assessment of viability, CellTiter-Blue reagent was added to cells grown in 96-well plates, and then incubated for 4 hours at 37° C. Following incubation, wells were read using a fluorescence microplate reader at 560 nm excitation/590 nm emission. Percent viability was calculated from a reference using untreated healthy cells, which were considered 100% viable, and cell-free wells containing reagent alone, which were considered 0% viable.
(§3) Breast cancer cells, cultured alone or with MSCs for 12 days, were treated with AMD3100, or untreated. After 48 hours, all cultures were exposed to carboplatin, with re-added AMD3100 in cultures that had initial AMD3100. After 72 hours, the viable cells were counted (A and B), and presented (C and D) as the mean±SD, n=3. Whole cell extracts from these experiments were analyzed by immunoblot for caspase-3 (E). Membranes were stripped and re-probed with β-actin for normalization. Representative blots are shown, n=3.
(§4) Breast cancer cells cultured in the presence or absence of MSCs for 12 days were treated for 48 hours with AMD3100, or untreated. Following 48 hours, treated and untreated cells were exposed to carboplatin for 72 hours to induce cell death. […] At the end of this regiment cell proliferation (A and B) and viability (C and D) were assessed. The results are presented as the mean±SD, n=3.

MDA-MB-231 [3] = tested on: MDA-MB-231
Procedure: as §1, §2, §3, §4

IL-1β = details: MDA-MB-231 transwell cultures, MSCs obtained from AMD3100-treated co-cultures, 48 hours
Procedure: (§5) To assess the factor(s) responsible for breast cancer cell proliferation (FIGS. 4A and 4B), media from representative (MDA-MB-231) transwell cultures were analyzed with a cytokine/growth factor microarray.
(§6) Cytokine production by MSCs in the transwell assay was assessed using the Human Cytokine Antibody Array 5 (RayBiotech; Norcross, Ga.). Briefly, after 48 hours of culture, the transwell was removed and the breast cancer cell growth media collected for cytokine determination. Background levels obtained with media alone were subtracted. The densities of spots were quantitated with UN-SCAN-IT densitometry software (Silk Scientific; Orem, Utah).

[4] = tested on: hematopoietic stem cells (HSCs); details: potential side effect in combination with chemotherapy; cited from earlier work
MDA-MB-231 [5] = tested on: MDA-MB-231; remark: listed apart in the source
Procedure: The study of the molecular disruption of CXCL12-CXCR4 with a CXCR4 antagonist, AMD3100 was expanded. We first examined the effects of AMD3100 on the proliferation of MDA-MB-231 and T47D, in co-culture with MSCs (FIGS. 1D and 1E), in the presence of two different concentrations of the antagonist (10 and 100 ng/ml) for the 48-hour culture. Parallel cultures contained vehicle.
Some studies also looked at AMD3100 in long-term breast cancer cell/MSC co-cultures. In this set of studies we determined the effect of AMD3100 when breast cancer cells were cultured with MSCs for over 48 hours since this will recapitulate in situ when breast cancer cells are expected to contact MSCs for long periods. […] Control cultures contained vehicle (−) and 2-day exposure to AMD3100 (D2).
as §1
For determination of proliferation, cells grown in 96-well plates were frozen overnight at −70° C. The next day, thawed cells were incubated in CyQuant GR dye/cell-lysis buffer for 5 minutes at room temperature, and examined using a fluorescence microplate reader at 480 nm excitation/520 nm emission. Proliferation was calculated from a standard curve of known numbers of breast cancer cells and MSCs. To accurately assess the proliferation of breast cancer cells, but not MSC proliferation in co-culture, proliferation of MSCs grown alone were subtracted from the total cellular proliferation recorded.

T47D [6] = assay: CyQuant proliferation of T47D, alone or in co-culture with MSCs
breast cancer cells = details: 12-day co-culture with MSCs, AMD3100 for the last 48 hours, compared to no treatment
Procedure: We studied cell cycle phase of 12-day co-cultured breast cancer cells, with or without AMD3100, as described for FIG. 2. Breast cancer cells cultured alone served as control. […] FIG. 3B illustrates a representative histogram of the proportion of cycling (peaks 2 and 3) versus non-cycling (peak 1) MDA-MB-231 co-cultured with MSCs, with (right) or without AMD3100 (left).
Breast cancer cells and MSC co-cultures were incubated with anti-cytokeratin primary and FITC-anti IgG secondary antibodies to label the breast cancer cell fraction. Cells were then treated with RNase A (1 mg/ml) and fixed with cold 70% ethanol. Cells were stained with 20 μg/ml propidium iodide (PI) solution and transferred to round bottom tubes for DNA analysis by BD FACScan. Double positive cells identified only the desired cellular fraction, consisting of breast cancer cells that incorporated the DNA dye. Cultures incubated with FITC anti-IgG alone were used as isotype controls. All analyses were performed using BD CellQuest software and percent statistics were given.
Breast cancer cells, alone or 12-day cultures with MSCs were treated with AMD3100 for the last 48 hours or untreated. At the end of the assay, cells were co-labeled with anti-cytokeratin and propidium iodide and then analyzed by flow cytometry. Results are presented as the mean percent cycling cells (S+G2/M phases)±SD, n=3 (B). […]

[7] = tested on: naïve breast cancer cells; assay: Transwell assay: proliferation of naïve breast cancer cells with MSCs in the inner wells; assay type: cell-based, human; details: inner wells: MSCs from co-cultures with AMD3100, compared to antagonist-treated MSCs alone; 48 hours
Procedure: Using mechanistic studies, we next asked whether breast cancer cells proliferation by AMD3100 requires contact between MSCs and breast cancer cells. […] To address this question, we utilized a transwell assay in which “naïve” breast cancer cells, which were not previously exposed to MSCs or AMD3100, were seeded in the outer wells. MSCs from co-cultures with AMD3100 or vehicle were added to the inner wells. In parallel, only vehicle was added to the inner wells.
Breast cancer cells (5×10^4) were added to the outer well of 24-well transwell cultures, 0.4 μM insert (BD Falcon). In parallel, breast cancer cells were separated from co-cultures with MSCs by positive selection with anti-cytokeratin-conjugated; pan anti-mouse IgG Dynabeads (Invitrogen). MSCs from the negative fraction were then added to the inner wells of the transwell chamber in order to determine the effects of MSC-derived soluble factors on breast cancer cell proliferation. For neutralization of soluble IL-1α and IL-1β, anti-IL-1RI was titrated into the 24-well plates.
MSCs were co-cultured with breast cancer cells for 12 days with, or without AMD3100. The MSCs were selected and then added to the inner wells of transwell cultures. Naïve breast cancer cells were placed in the outer wells. After 48 hours, breast cancer cells were counted and the results presented as mean±SD, n=3 (A and B). […]

MDA-MB-231 [8] = assay: Tumor volume of subcutaneous MDA-MB-231 (with or without MSCs) in nude BALB/c mice; assay type: in vivo
Procedure: To validate our in vitro studies, female nude BALB/c mice were injected subreast cancerutaneously with 10^6 matrigel-resuspended MDA-MB-231 alone or in combination with 10^6 MSCs, as per the experimental design described in FIG. 7A. Mice were divided into the following experimental groups (n=5 per group): (A) breast cancer cells injected alone; (B) breast cancer cells injected in combination with MSCs; (C) group B plus AMD3100 treatment; (D) group C plus IL-1ra co-treatment. All groups were treated with carboplatin at days 8 and 10 following initial injection of cells, and the animals euthanized at the experimental endpoint of day 12 (D12).
Female nude BALB/c mice (4 weeks) were obtained from Harlan Laboratories (Indianapolis, Ind.) and housed in a laminar flow hood at an AALAC-accredited facility. The use of mice was approved by the Institutional Animal Care and Use Committee, New Jersey Medical School (Newark, N.J.). MDA-MB-231 (10^6), alone or in combination with MSCs (10^6), in 0.1 mL and equal volume of BD Matrigel (BD Biosciences, Bedford, Mass.) were injected by subreast cancerutaneous route in the nude mice (Day 0, D0). After 4 days, the tumors were injected with AMD3100 alone or in combination with IL-1ra or vehicle (hereafter termed ‘treatment’). Mice were given a second ‘treatment’ at D8 along with a first dose of chemotherapy delivered intra-peritoneally. A second dose of chemotherapy was given at D10 and the mice euthanized at D12.
In FIG. 7, the effects of AMD3100 and carboplatin on tumor volume are represented. The method by which mice were treated is shown in (A). (B) Female BALB/c (n=5) were injected subreast cancerutaneously with matrigel and 10^6 MDA-MB-231 alone or in combination with 10^6 MSCs. The mean volumes at the first injection (day 8, D8) are normalized to 100% and the change in volumes at D10 and D12 are presented as mean±SD.

CXCR7 = CXCR7 (Homo sapiens, UniProt P25106); details: cited from earlier work
Sequence of CXCR7 (P25106 whole entry, species assumed): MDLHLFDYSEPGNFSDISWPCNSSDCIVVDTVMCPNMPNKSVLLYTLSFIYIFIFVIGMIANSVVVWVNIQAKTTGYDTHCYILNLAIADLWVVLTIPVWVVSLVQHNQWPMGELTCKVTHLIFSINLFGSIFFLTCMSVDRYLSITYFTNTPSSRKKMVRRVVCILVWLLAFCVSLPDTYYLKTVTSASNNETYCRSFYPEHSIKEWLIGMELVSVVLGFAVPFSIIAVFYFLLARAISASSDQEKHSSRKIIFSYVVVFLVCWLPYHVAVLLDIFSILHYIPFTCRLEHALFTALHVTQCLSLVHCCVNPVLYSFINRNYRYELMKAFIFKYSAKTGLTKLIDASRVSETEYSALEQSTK

IL-1α = details: MDA-MB-231 transwell cultures, MSCs obtained from AMD3100-treated co-cultures, 48 hours
Procedure: as §5, §6

caspase-3 = details: breast cancer cells isolated from co-culture, carboplatin added with AMD3100
Procedure: Whole cell extracts from breast cancer cells and MSCs were prepared in accordance with accepted methods and 20 μg were analyzed by western blots using 4-20% SDS-PAGE (Bio-Rad, Hercules, Calif.). The proteins were transferred onto polyvinylidene difluoride membranes (Perkin Elmer Life Sciences, Boston, Mass.). Membranes were incubated overnight with primary antibodies and then detected the following day by 2 hour incubation with HRP-conjugated IgG. All primary and secondary antibodies were used at final dilutions of 1/1000 and 1/2000, respectively. HRP was developed with chemiluminscence detection reagent (Perkin Elmer Life Sciences). The membranes were stripped with Restore Stripping Buffer (Pierce, Rockford, Ill.) for reprobing with other antibodies.

[9] = T47D + MSCs, AMD3100 48 hours, then carboplatin 72 hours in the absence of AMD3100 (FIG. 6)
[10] = MDA-MB-231 + MSCs, AMD3100 48 hours, then carboplatin 72 hours in the absence of AMD3100 (FIG. 6)

c1cc(CN2CCCNCCNCCCNCC2)ccc1CN1CCCNCCNCCCNCC1 [AMD3100]
effect on primary and metastatic breast cancer [1]: can decrease primary and metastatic breast cancer in mice | overall survival for experimental lung metastases [1]: no effect on the overall survival | cell viability with AMD3100 (T47D [2]): no change in cell viability | resistance to carboplatin when chemotherapy was added with AMD3100 (T47D [2]; T47D + MSCs 12 days, AMD3100 48 hours then carboplatin with re-added AMD3100 72 hours): resistance was compromised | viability after AMD3100 pre-treatment and chemotherapy without the antagonist (T47D [2]; [9]): effect on cell proliferation and viability was lost | cell viability with AMD3100 (MDA-MB-231 [3]): no change in cell viability | resistance to carboplatin when chemotherapy was added with AMD3100 (MDA-MB-231 [3]; MDA-MB-231 + MSCs 12 days, AMD3100 48 hours then carboplatin with re-added AMD3100 72 hours): resistance was compromised | viability after AMD3100 pre-treatment and chemotherapy without the antagonist (MDA-MB-231 [3]; [10]): effect on cell proliferation and viability was lost | IL-1β in transwell media, fold greater (IL-1β): 5 fold | mobilization of hematopoietic stem cells [4]: can mobilize hematopoietic stem cells | proliferation in 12-day (D12) co-culture with MSCs (MDA-MB-231 [5]; MDA-MB-231 + MSCs 12 days, optimal AMD3100 during the last 48 hours, effect on the MSC-mediated decrease): significantly (p<0.05) reversed | AMD3100 concentration of sensitivity (optimal dose for proliferation) (MDA-MB-231 [5]; MDA-MB-231 + MSCs, 48-hour culture): 10 ng/mL | proliferation of breast cancer cells in co-cultures with MSCs (MDA-MB-231 [5]; MDA-MB-231 + MSCs, 48-hour culture, AMD3100 10 and 100 ng/ml, compared to breast cancer cells alone (FIG. 1D)): promoted the proliferation | cell proliferation after AMD3100 pre-treatment and chemotherapy without the antagonist (MDA-MB-231 [5]; [10]): effect on cell proliferation and viability was lost | time at which the increase in proliferation began (MDA-MB-231 [5]; MDA-MB-231, optimal AMD3100 dose): 1 h | optimum time for AMD3100-mediated proliferation (MDA-MB-231 [5]; MDA-MB-231, optimal AMD3100 dose, various times (FIG. 1F)): 48 h | proliferation of breast cancer cells alone (MDA-MB-231 [5]; MDA-MB-231 cultured alone, 48 hours, AMD3100): decrease in cell proliferation | proliferation in 12-day (D12) co-culture with MSCs (T47D [6]; T47D + MSCs 12 days, optimal AMD3100 during the last 48 hours, effect on the MSC-mediated decrease): significantly (p<0.05) reversed | AMD3100 concentration of sensitivity (optimal dose for proliferation) (T47D [6]; T47D + MSCs, 48-hour culture): 100 ng/mL | proliferation of breast cancer cells in co-cultures with MSCs (T47D [6]; T47D + MSCs, 48-hour culture, AMD3100 10 and 100 ng/ml, compared to breast cancer cells alone (FIG. 1E)): promoted the proliferation | cell proliferation after AMD3100 pre-treatment and chemotherapy without the antagonist (T47D [6]; [9]): effect on cell proliferation and viability was lost | proliferation of breast cancer cells alone (T47D [6]; T47D cultured alone, 48 hours, AMD3100): decrease in cell proliferation | relation of proliferation to AMD3100 concentration (T47D [6]; T47D, closed circles FIG. 1E, 10 and 100 ng/ml): inversely related to AMD3100 concentration | time at which the increase in proliferation began (T47D [6]; T47D, optimal AMD3100 dose, relative to MDA-MB-231): at a later time point | optimum time for AMD3100-mediated proliferation (T47D [6]; T47D, optimal AMD3100 dose, various times (FIG. 1G)): 48 h | cycling cells (S/G2/M phase) (breast cancer cells): significant (p<0.05) increase in cycling cells | naïve breast cancer cell proliferation in transwells [7]: significant (p<0.05) increase | mean tumor volume by D12 (MDA-MB-231 [8]; group C: breast cancer cells + MSCs, tumors injected with AMD3100, carboplatin at days 8 and 10): significant reduction in tumor volume; also recorded: significantly (p<0.05) reversed the chemoprotective effect of MSCs | action on CXCR7 (CXCR7): allosteric agonist of CXCR7 | IL-1α in transwell media, fold greater (IL-1α): 3 fold | caspase-3 immunoreactivity (caspase-3): increased caspase-3 immunoreactivity

N.N.O=C([O-])C1(C(=O)[O-])CCC1.[Pt+2] [carboplatin]
response to carboplatin (viable cells / viability) in co-culture with MSCs (T47D [2]; T47D + MSCs 12 days, carboplatin 72 hours, no AMD3100, compared to breast cancer cells alone): chemoresistant | response to carboplatin (viable cells / viability) in co-culture with MSCs (MDA-MB-231 [3]; MDA-MB-231 + MSCs 12 days, carboplatin 72 hours, no AMD3100, compared to breast cancer cells alone): chemoresistant | mean tumor volume by D12 (MDA-MB-231 [8]; group A: breast cancer cells injected alone, carboplatin at days 8 and 10): drastic reduction in mean tumor volume | mean tumor volume by D12 (MDA-MB-231 [8]; group B: breast cancer cells co-injected with MSCs, carboplatin at days 8 and 10, effect on the reduction seen in group A): significantly (p<0.05) impeded

IL-1ra: IL-1 receptor antagonist used to block the activity of IL-1 in the mouse tumor model
mean tumor volume by D12 (MDA-MB-231 [8]; group D: group C plus IL-1ra co-treatment, effect on the AMD3100 response): negated this response
